# Results taken from patent US8217085B2 (priority 2009, dated 2012).
# Read-outs that look alike come from different tables or passages of the source.
# Columns and labels:
# [1] = test system: ATCC strain 43300 Staphylococcus aureus; format: cell-based
# [2] = test system: ATCC strain 43300 Staphylococcus aureus; conditions: 24 hours
# Method: All concentrations were plated out to the 10^−7 dilutions to ascertain cfu/ml.
# ATCC strain 43300 Staphylococcus aureus was streaked out for isolations and 25 clones were picked and diluted to a McFarland standard of one. The estimated value was then taken to inoculate tubes containing growth media and 12, 30 or 60 μg/ml methicillin or oxacillin with around 10^−7 cfu/tube.
# Material was calculated on a 10 ml volume. Sterile oxacillin or methicillin was added to each experimental condition to a final concentration of 12, 30 or 60 μg/ml antibiotic.
# All tubes were then inoculated with a dilution of the selected ATCC strain 43300 Staphylococcus aureus clone giving a final level of colony forming units of 9.4×10^7/ml (log=7.97). The tubes were incubated at 25° C. and mixed periodically. […] Plating was done at 24 hours. Each condition was plated by diluting 1 ml of growth material into 9 ml of MLB diluent broth. This mixture was serial diluted down to 10^−7, and 1 ml placed in a sterile petri dish at each dilution point. 20 mls of TSA was added to each dilution, swirled and allowed to solidify. All dilutions were placed in a 35° C. incubator for 24 hours. Bacterial colonies on each plate were counted and colony counts changed into log format. A positive and negative control was ascertained.
# [3] = test system: ATCC strain 43300 Staphylococcus aureus; conditions: for average log reduction in cfu/ml: 48 hours; for Log reduction in cfu/ml: 120 hours
# Method: This is the MIC for oxacillin and methicillin for this strain of bacteria.
# USP<51> Antimicrobial Effectiveness protocol was used as the template experimental paradigm. […] All concentrations were plated out to the 10^−7 dilutionsto ascertain cfu/ml. […] This concentration is the industry standard for determining MRSA resistance in clinical applications.
# Material was calculated on a 10 ml volume. Sterile oxacillin or methicillin was added to each experimental condition daily at 300 μl from a 30 mg/10 ml concentration giving it an initial final concentration of 6 μg/ml.
# All tubes were inoculated with a dilution of MRSA giving a final level of colony forming units of 2.13×10^6/ml (Log=6.3). The tubes were incubated at 25° C. and mixed periodically. Plating was done at 24 hours, 48 hours and 5 days. Each condition was plated by diluting 1 ml of growth material into 9 ml of MLB diluent broth. This mixture was serial diluted down to 10^−7, and 1 ml placed in a sterile petri dish at each dilution point. 20 mls of TSA was added to each dilution, swirled and allowed to solidify. All dilutions were placed in a 35° C. incubator for 24 hours. Bacterial colonies on each plate were counted and colony counts changed into log format. A positive and negative control was ascertained.
smiles,measurement,setting,value
"CS(C)(=O)=O [MSM, methylsulfonylmethane]",recovery of MRSA after enrichment,"[1]; 5% MSM, 60 μg/ml methicillin, 72 hours",true total kill
same,recovery of MRSA after enrichment,"[1]; 6% MSM, 12 μg/ml methicillin, 72 hours",true total kill
same,recovery of MRSA after enrichment,"[1]; 6% MSM, 60 μg/ml methicillin, 72 hours",true total kill
same,recovery of MRSA after enrichment,"[1]; 7% MSM, 12 μg/ml methicillin, 72 hours",true total kill
same,recovery of MRSA after enrichment,"[1]; 8% MSM, 12 μg/ml methicillin, 96 hours",true total kill
same,recovery of MRSA after enrichment,"[1]; 10% MSM, 30 μg/ml methicillin, 120 hours",true total kill
same,recovery of MRSA after enrichment,"[1]; 11% MSM, 30 μg/ml methicillin, 120 hours",true total kill
same,recovery of MRSA after enrichment,"[1]; 11% MSM, 60 μg/ml methicillin, 120 hours",true total kill
same,recovery of MRSA after enrichment,"[1]; 12% MSM, 30 μg/ml methicillin, 120 hours",true total kill
same,recovery of MRSA after enrichment,"[1]; 12% MSM, 60 μg/ml methicillin, 120 hours",true total kill
same,recovery of MRSA after enrichment,"[1]; 14% MSM, 60 μg/ml methicillin, 120 hours",true total kill
same,recovery of MRSA after enrichment,"[1]; 15% MSM, 60 μg/ml methicillin, 120 hours",true total kill
same,recovery of MRSA after enrichment,"[1]; 16% MSM, 30 μg/ml methicillin, 120 hours",true total kill
same,average log reduction in cfu/ml,"[2]; 5% MSM with antibiotic (12, 30 or 60 μg/ml oxacillin or methicillin)",2.2 log
same,average log reduction in cfu/ml,[2]; 16% MSM with antibiotic (barring methicillin 60 μg/ml outlier),3.3 log
same,average log reduction in cfu/ml,"[3]; initial 5% MSM, 6 μg/ml methicillin",2.7 log
same,average log reduction in cfu/ml,"[3]; initial 8% MSM, 6 μg/ml oxacillin",2.7 log
same,Log reduction in cfu/ml,"[3]; initial 13-16% MSM, 6 μg/ml methicillin",~3.5 log
same,Log reduction in cfu/ml,"[3]; initial 14-16% MSM, 6 μg/ml oxacillin",~3.3 log
same,average log reduction in cfu/ml,"[3]; initial 16% MSM, 6 μg/ml methicillin",2.1 log
same,average log reduction in cfu/ml,"[3]; initial 16% MSM, 6 μg/ml oxacillin",2.1 log
